According to ChEMBL document CHEMBL5303573, “Mapping human microbiome drug metabolism by gut bacteria and their genes” (Nature, 2019):

Columns and labels:
[1] = The drug is tested on Clostridium asparagiforme strain: DSM15981 for biotransformation. The drug concentrations were measured before and after a 12-h incubation by liquid-chromatography-coupled mass spectrometry (LC–MS); assay type: ADME; parameters: dose 2 uM, timepoint 0 vs 12 hours; conditions: enterocloster asparagiformis, 2 µM
[2] = The drug is tested on Enterobacter cancerogenus strain: ATCC35316 for biotransformation. The drug concentrations were measured before and after a 12-h incubation by liquid-chromatography-coupled mass spectrometry (LC–MS); conditions: 2 µM
[3] = enterocloster bolteae, 12 h, 2 µM
[4] = victivallis vadensis, 12 h, 2 µM
[5] = The drug is tested on Bacteroides dorei strain: DSM17855 for biotransformation. The drug concentrations were measured before and after a 12-h incubation by liquid-chromatography-coupled mass spectrometry (LC–MS); conditions: phocaeicola dorei, 2 µM
[6] = The drug is tested on Clostridium spiroforme strain: DSM1552 for biotransformation. The drug concentrations were measured before and after a 12-h incubation by liquid-chromatography-coupled mass spectrometry (LC–MS); conditions: thomasclavelia spiroformis, 2 µM
[7] = The drug is tested on Clostridium hathewayi strain: DSM13479 for biotransformation. The drug concentrations were measured before and after a 12-h incubation by liquid-chromatography-coupled mass spectrometry (LC–MS); conditions: hungatella hathewayi, 2 µM
[8] = The drug is tested on Alistipes indistinctus strain: DSM22520 for biotransformation. The drug concentrations were measured before and after a 12-h incubation by liquid-chromatography-coupled mass spectrometry (LC–MS); conditions: 2 µM
[9] = The drug is tested on Salmonella typhimurium strain: LT2 for biotransformation. The drug concentrations were measured before and after a 12-h incubation by liquid-chromatography-coupled mass spectrometry (LC–MS); conditions: salmonella enterica subsp. enterica, 2 µM

Structure (SMILES) | Bacterial Biotransformation [1] | Bacterial Biotransformation [2] | Bacterial Biotransformation [3] | Bacterial Biotransformation [4] | Bacterial Biotransformation [5] | Bacterial Biotransformation [6] | Bacterial Biotransformation [7] | Bacterial Biotransformation [8] | Bacterial Biotransformation [9]
CC(C)(C)NCC(O)COc1cccc2c1CC(O)C(O)C2 (centres undefined) [NADOLOL] | Compound NOT metabolized | Compound NOT metabolized | Compound NOT metabolized | – | – | – | – | – | –
O=C(O[C@H]1C[C@H]2CC[C@@H](C1)[N+]21CCCC1)C(O)(c1ccccc1)c1ccccc1.[Cl-] [TROSPIUM CHLORIDE] | – | Compound NOT metabolized | Compound NOT metabolized | Compound NOT metabolized | Compound NOT metabolized | – | – | – | –
C=C[C@H]1CN2CC[C@H]1C[C@H]2[C@H](O)c1ccnc2ccc(OC)cc12.C=C[C@H]1CN2CC[C@H]1C[C@H]2[C@H](O)c1ccnc2ccc(OC)cc12.O.O.O=S(=O)(O)O [QUININE SULFATE] | – | – | Compound NOT metabolized | – | – | Compound NOT metabolized | Compound NOT metabolized | – | –
CCN(CC)CCNC(=O)c1cc(S(C)(=O)=O)ccc1OC [TIAPRIDE] | – | Compound NOT metabolized | Compound NOT metabolized | – | Compound NOT metabolized | – | – | Compound NOT metabolized | –
CC(=O)O[C@H]1C(=O)[C@@]2(C)[C@H]([C@H](OC(=O)c3ccccc3)[C@]3(O)C[C@H](OC(=O)[C@H](O)[C@@H](NC(=O)c4ccccc4)c4ccccc4)C(C)=C1C3(C)C)[C@]1(OC(C)=O)CO[C@@H]1C[C@@H]2O [PACLITAXEL] | Compound NOT metabolized | Compound NOT metabolized | Compound NOT metabolized | Compound NOT metabolized | – | – | – | Compound NOT metabolized | –
Cc1ccc(/C(=C\CN2CCCC2)c2ccccn2)cc1 [TRIPROLIDINE] | – | – | Compound NOT metabolized | – | Compound NOT metabolized | – | – | Compound NOT metabolized | –
CC12CC3CC(C)(C1)CC(N)(C3)C2 [MEMANTINE] | Compound NOT metabolized | Compound NOT metabolized | Compound NOT metabolized | – | Compound NOT metabolized | – | – | – | –
O=C(NC(Cc1cc(=O)[nH]c2ccccc12)C(=O)O)c1ccc(Cl)cc1 (centres undefined) [REBAMIPIDE] | Compound NOT metabolized | Compound NOT metabolized | Compound NOT metabolized | Compound NOT metabolized | Compound metabolized | – | – | Compound NOT metabolized | –
COC(=O)C(c1ccccc1)C1CCCCN1 (centres undefined) [METHYLPHENIDATE] | – | Compound NOT metabolized | Compound NOT metabolized | – | Compound NOT metabolized | – | – | Compound NOT metabolized | Compound NOT metabolized
CCCCC(=O)O[C@]1(C(=O)CO)[C@@H](C)C[C@H]2[C@@H]3CCC4=CC(=O)C=C[C@]4(C)[C@@]3(F)[C@@H](O)C[C@@]21C [BETAMETHASONE VALERATE] | Compound NOT metabolized | Compound NOT metabolized | Compound metabolized | Compound metabolized | Compound metabolized | – | – | – | –
CCCCC(=O)N(Cc1ccc(-c2ccccc2-c2nnn[nH]2)cc1)[C@H](C(=O)O)C(C)C | – | Compound NOT metabolized | Compound NOT metabolized | Compound NOT metabolized | Compound NOT metabolized | – | – | Compound NOT metabolized | –
CN(C)C(=O)C(CCN1CCC(O)(c2ccc(Cl)cc2)CC1)(c1ccccc1)c1ccccc1 [LOPERAMIDE] | Compound NOT metabolized | – | Compound NOT metabolized | Compound NOT metabolized | Compound metabolized | – | – | Compound metabolized | –
Cc1cc(C)cc(OCC2CNC(=O)O2)c1 (centres undefined) [METAXALONE] | – | – | Compound NOT metabolized | – | Compound metabolized | – | – | – | –
CC(C)(C)NC[C@H](O)COc1ccccc1C1CCCC1.CC(C)(C)NC[C@H](O)COc1ccccc1C1CCCC1.O=S(=O)(O)O [PENBUTOLOL SULFATE] | Compound NOT metabolized | – | Compound NOT metabolized | Compound NOT metabolized | – | – | – | Compound NOT metabolized | Compound NOT metabolized
CCC(=O)NCC[C@@H]1CCc2ccc3c(c21)CCO3 [RAMELTEON] | – | – | Compound NOT metabolized | – | Compound metabolized | – | – | Compound NOT metabolized | –
COC(=O)[C@H]1[C@H]2C[C@@H]3c4[nH]c5cc(OC)ccc5c4CCN3C[C@H]2C[C@@H](OC(=O)c2cc(OC)c(OC)c(OC)c2)[C@@H]1OC [RESERPINE] | Compound NOT metabolized | Compound NOT metabolized | Compound NOT metabolized | Compound NOT metabolized | Compound NOT metabolized | – | – | Compound NOT metabolized | –
COc1c2occc2cc2ccc(=O)oc12 [METHOXSALEN] | Compound metabolized | Compound NOT metabolized | Compound metabolized | – | Compound metabolized | Compound NOT metabolized | Compound metabolized | Compound NOT metabolized | –
CCc1nc(N)nc(N)c1-c1ccc(Cl)cc1 [PYRIMETHAMINE] | Compound NOT metabolized | Compound NOT metabolized | Compound NOT metabolized | – | Compound NOT metabolized | – | – | Compound NOT metabolized | –
COc1ccc(/C=C/C(=O)Nc2ccccc2C(=O)O)cc1OC | – | Compound NOT metabolized | Compound NOT metabolized | Compound NOT metabolized | Compound NOT metabolized | – | – | – | –
